In brackets after ≈: the same amount, converted by molar mass.
Key:
Staph. albus SS 03 = type: cell-based; details: Brain Heart Infusion, estolate and RV11-RV15 previously hydrolized, unit assumed
Staph. albus SS 04 = type: cell-based; details: Brain Heart Infusion, estolate and RV11-RV15 previously hydrolized, unit assumed
Staph. aureus SS 07 [1] = type: cell-based; details: Brain Heart Infusion, estolate and RV11-RV15 previously hydrolized, unit assumed
Staph. aureus SS 08 = type: cell-based; details: Brain Heart Infusion, estolate and RV11-RV15 previously hydrolized, unit assumed
Staph. aureus SS 09 = type: cell-based; details: Brain Heart Infusion, estolate and RV11-RV15 previously hydrolized, unit assumed
Staph. aureus SS 10 = type: cell-based; details: Brain Heart Infusion, estolate and RV11-RV15 previously hydrolized, unit assumed
[2] = tested on: Strept. haemolyticus SS 17; type: cell-based; details: Brain Heart Infusion, estolate and RV11-RV15 previously hydrolized, unit assumed
[3] = tested on: Strept. haemolyticus SS 18; type: cell-based; details: Brain Heart Infusion, estolate and RV11-RV15 previously hydrolized, unit assumed
Strept. faecalis SS 19 = type: cell-based; details: Brain Heart Infusion, estolate and RV11-RV15 previously hydrolized, unit assumed
B. subtilis ATCC 6633 = type: cell-based; details: Brain Heart Infusion, estolate and RV11-RV15 previously hydrolized, unit assumed
B. cereus ATCC 11778 = type: cell-based; details: Brain Heart Infusion, estolate and RV11-RV15 previously hydrolized, unit assumed
B. anthranis SS 08 = type: cell-based; details: Brain Heart Infusion, estolate and RV11-RV15 previously hydrolized, unit assumed
Br. melitensis SS 19 = type: cell-based; details: unit assumed
Citrobacter SS 05 = type: cell-based; details: Brain Heart Infusion, estolate and RV11-RV15 previously hydrolized, unit assumed
Citrobacter SS 09 = type: cell-based; details: Brain Heart Infusion, estolate and RV11-RV15 previously hydrolized, unit assumed
S. infantis SS 08 = type: cell-based; details: Brain Heart Infusion, estolate and RV11-RV15 previously hydrolized, unit assumed
S. heidelberg SS 18 = type: cell-based; details: Brain Heart Infusion, estolate and RV11-RV15 previously hydrolized, unit assumed
E. cloacae SS 07 = type: cell-based; details: Brain Heart Infusion, estolate and RV11-RV15 previously hydrolized, unit assumed
E. aerogenes SS 011 = type: cell-based; details: Brain Heart Infusion, estolate and RV11-RV15 previously hydrolized, unit assumed
Ps. aeruginosa SS 10 = type: cell-based; details: Brain Heart Infusion, estolate and RV11-RV15 previously hydrolized, unit assumed
E. coli SS 04 = type: cell-based; details: Brain Heart Infusion, estolate and RV11-RV15 previously hydrolized, unit assumed
E. coli SS 06 = type: cell-based; details: Brain Heart Infusion, estolate and RV11-RV15 previously hydrolized, unit assumed
E. coli SS 07 = type: cell-based; details: Brain Heart Infusion, estolate and RV11-RV15 previously hydrolized, unit assumed
Pr. mirabilis SS 09 = type: cell-based; details: Brain Heart Infusion, estolate and RV11-RV15 previously hydrolized, unit assumed
Pr. vulgaris SS 10 = type: cell-based; details: Brain Heart Infusion, estolate and RV11-RV15 previously hydrolized, unit assumed
Kl. aerogenes SS 71 = type: cell-based; details: Brain Heart Infusion, estolate and RV11-RV15 previously hydrolized, unit assumed
H. tubercolosis SS 03 = type: cell-based; details: Brain Heart Infusion, estolate and RV11-RV15 previously hydrolized, unit assumed
Text: (§1) In the following table I the MIC/ml values are indicated corresponding to the lowest concentration capable of inducing a complete inhibition of the bacterial development.

Kl. pneumoniae SS 04 = type: cell-based; details: Brain Heart Infusion, estolate and RV11-RV15 previously hydrolized, unit assumed
Text: as §1

Sr. marcescens SS 03 = type: cell-based; details: Brain Heart Infusion, estolate and RV11-RV15 previously hydrolized, unit assumed
C. diphtheriae SS 19 = type: cell-based; details: Brain Heart Infusion, estolate and RV11-RV15 previously hydrolized, unit assumed
D. pneumoniae SS 23 [4] = type: cell-based; details: Brain Heart Infusion, estolate and RV11-RV15 previously hydrolized, unit assumed
N. gonorreae SS 27 = type: cell-based; details: Brain Heart Infusion, estolate and RV11-RV15 previously hydrolized, unit assumed
N. meningitidis SS 04 = type: cell-based; details: Brain Heart Infusion, estolate and RV11-RV15 previously hydrolized, unit assumed
H. influentiae SS 02 = type: cell-based; details: Brain Heart Infusion, estolate and RV11-RV15 previously hydrolized, unit assumed
H. pertussis SS 03 = type: cell-based; details: Brain Heart Infusion, estolate and RV11-RV15 previously hydrolized, unit assumed
C. albicans SS 04 = type: cell-based; details: Brain Heart Infusion, estolate and RV11-RV15 previously hydrolized, unit assumed
Cl. tetani SS 17 = type: cell-based; details: Brain Heart Infusion, estolate and RV11-RV15 previously hydrolized, unit assumed
B. anthranis SS 09 = type: cell-based; details: B. anthranis SS 09 (14 bis); Brain Heart Infusion; estolate and RV11-RV15 previously hydrolized; unit assumed
Acute toxicity = type: in vivo; details: mortality 10 days after treatment, mice
Procedure: The acute toxicity was assessed in Swiss white mice by oral and intravenous route. The LD50 values have been calculated by the methods of Probits, starting from the mortality recorded 10 days after the treatment.

Staph. aureus SS 07 [5] = assay: Experimental infection induced by Staph. aureus SS 07; type: in vivo, Swiss white mice; details: Staph. aureus SS 07, mg/kg of erythromycin, survival after 7 days, 10080 min
Summary of the method: (§2)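 Swiss mice of 20 g infected parenterally with lethal amounts of Staph. aureus SS 07 or D. pneumoniae SS 23. Antibiotics were given at infection and again 6 and 24 h later. ED50 was derived from survival at 7 days.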

D. pneumoniae SS 23 [6] = assay: Experimental infection induced by D. pneumoniae SS 23; type: in vivo, Swiss white mice; details: D. pneumoniae SS 23, mg/kg of erythromycin, survival after 7 days, 10080 min
Summary of the method: as §2

[7] = Mucolytic activity: obstruction of the bronchial tract after SO2 inhalation; type: in vivo, Sprague Dawley male rats; details: i.m., 250 mg/kg; SO2, 15 days

Molecule `CC[C@H]1OC(=O)[C@H](C)[C@@H](O[C@H]2C[C@@](C)(OC)[C@@H](O)[C@H](C)O2)[C@H](C)[C@@H](O[C@@H]2O[C@H](C)C[C@H](N(C)C)[C@H]2O)[C@](C)(O)C[C@@H](C)C(=O)[C@H](C)[C@@H](O)[C@]1(C)O` [RV05, erythromycin-N-acetylcysteinate] has an MIC (Staph. albus SS 03) of 0.05 µg/mL (≈ 0.0681 µM), an MIC (Staph. albus SS 04) of 0.025 µg/mL (≈ 0.0341 µM) and an MIC (Staph. aureus SS 07 [1]) of 0.025 µg/mL (≈ 0.0341 µM). For the same molecule, the MIC (Staph. aureus SS 08) was 0.025 µg/mL (≈ 0.0341 µM), the MIC (Staph. aureus SS 09) was 0.1 µg/mL (≈ 0.136 µM) and the MIC (Staph. aureus SS 10) was 0.025 µg/mL (≈ 0.0341 µM). The MIC [2] was 3 µg/mL (≈ 4.09 µM), the MIC [3] was 0.8 µg/mL (≈ 1.09 µM) and the MIC (Strept. faecalis SS 19) was 0.2 µg/mL (≈ 0.273 µM). For the same molecule, the MIC (B. subtilis ATCC 6633) was 0.01 µg/mL (≈ 0.0136 µM), the MIC (B. cereus ATCC 11778) was 0.4 µg/mL (≈ 0.545 µM) and the MIC (B. anthranis SS 08) was 0.4 µg/mL (≈ 0.545 µM). For the same molecule, the MIC (Br. melitensis SS 19) was 3 µg/mL (≈ 4.09 µM), the MIC (Citrobacter SS 05) was > 200 µg/mL and the MIC (Citrobacter SS 09) was > 200 µg/mL. For the same molecule, the MIC (S. infantis SS 08) was 100 µg/mL (≈ 136 µM), the MIC (S. heidelberg SS 18) was 100 µg/mL (≈ 136 µM) and the MIC (E. cloacae SS 07) was > 200 µg/mL. For the same molecule, the MIC (E. aerogenes SS 011) was 100 µg/mL (≈ 136 µM), the MIC (Ps. aeruginosa SS 10) was 200 µg/mL (≈ 273 µM) and the MIC (E. coli SS 04) was 100 µg/mL (≈ 136 µM). For the same molecule, the MIC (E. coli SS 06) was 100 µg/mL (≈ 136 µM), the MIC (E. coli SS 07) was 25 µg/mL (≈ 34.1 µM) and the MIC (Pr. mirabilis SS 09) was > 200 µg/mL. For the same molecule, the MIC (Pr. vulgaris SS 10) was > 200 µg/mL, the MIC (Kl. aerogenes SS 71) was 50 µg/mL (≈ 68.1 µM) and the MIC (H. tubercolosis SS 03) was 50 µg/mL (≈ 68.1 µM). For the same molecule, the MIC (Kl. pneumoniae SS 04) was 50 µg/mL (≈ 68.1 µM), the MIC (Sr. marcescens SS 03) was 200 µg/mL (≈ 273 µM) and the MIC (C. diphtheriae SS 19) was 0.05 µg/mL (≈ 0.0681 µM). For the same molecule, the MIC (D. pneumoniae SS 23 [4]) was 0.05 µg/mL (≈ 0.0681 µM), the MIC (N. gonorreae SS 27) was 0.8 µg/mL (≈ 1.09 µM) and the MIC (N. meningitidis SS 04) was 0.8 µg/mL (≈ 1.09 µM). It also gave an MIC (H. influentiae SS 02) of 0.8 µg/mL (≈ 1.09 µM), an MIC (H. pertussis SS 03) of 0.2 µg/mL (≈ 0.273 µM) and an MIC (C. albicans SS 04) of 100 µg/mL (≈ 136 µM). For the same molecule, the MIC (Cl. tetani SS 17) was 0.2 µg/mL (≈ 0.273 µM), the MIC (B. anthranis SS 09) was 0.4 µg/mL (≈ 0.545 µM) and the “LD50 (reliability limits)” value (Acute toxicity; i.v., 14400 min) was 472.84 (529.08-442.57) mg.kg. The “LD50 (reliability limits)” value (Acute toxicity; os) was > 3000 mg·kg, the “ED50 (reliability limits)” value (Staph. aureus SS 07 [5]; os) was 2.08 (2.38-1.83) mg/kg and the “ED50 (reliability limits)” value (Staph. aureus SS 07 [5]; s.c.) was 1.33 (1.61-1.10) mg/kg. The “ED50 (reliability limits)” value (D. pneumoniae SS 23 [6]; os) was 119.31 (150.05-94.87) mg/kg, the “ED50 (reliability limits)” value (D. pneumoniae SS 23 [6]; s.c.) was 50.22 (62.33-40.46) mg/kg and the “Partial obstruction (% incidence)” value [7] was 6.66%. For the same molecule, the “Total obstruction, compact plug (% incidence)” value [7] was 20%, the “Total obstruction, nodular mass (% incidence)” value [7] was 13.33% and the “Total obstruction, pimply mass (% incidence)” value [7] was 6.66%.

— patent US4476120A, “Thiolic derivatives of erythromycin having therapeutic activity, and pharmaceutical compositions containing them” (Sigma Tau Indistrie Farmaceutiche Riunites, p.A, priority 1982, dated 1984)
